Measurements as given in PMC7522982, “PKIS deep dive yields a chemical starting point for dark kinases and a cell active BRSK2 inhibitor” (Scientific Reports, 2020).

Tests used:
PIM3 = PIM3 (Homo sapiens, UniProt Q86V86); test: Eurofins kinase enzymatic radiometric assay; format: biochemical; parameters: purchased Eurofins; conditions: Km of ATP, 9-point curve in duplicate
Excerpt: (§1) Due to our interest in the activity of GW296115 on several understudied IDG kinases, we collected full dose–response curves for all wild type kinases inhibited ≥ 75% in the DiscoverX panel that were offered by Eurofins. Having data in orthogonal formats is a powerful way to confirm inhibitory activity and adds rigor to our results. Eurofins has kinase enzymatic radiometric assays for 35 of the kinases on this list (Table S2) and a kinase enzymatic LANCE assay for one additional kinase (MAP2K5/MEK5).
(§2) Eurofins kinase enzymatic radiometric assays were carried out at the Km of ATP in dose–response (9-pt curve in duplicate) for each kinase for which it was offered.

PDGFRA = PDGFRA (Homo sapiens, UniProt P16234); test: Eurofins kinase enzymatic radiometric assay; format: biochemical; parameters: purchased Eurofins; conditions: Km of ATP, 9-point curve in duplicate
Excerpt: as §1, §2

PIM2 = PIM2 (Homo sapiens, UniProt Q9P1W9); test: Eurofins kinase enzymatic radiometric assay; format: biochemical; parameters: purchased Eurofins; conditions: Km of ATP, 9-point curve in duplicate
Excerpt: as §1, §2

DAPK1 = DAPK1 (Homo sapiens, UniProt P53355); test: Eurofins kinase enzymatic radiometric assay; format: biochemical; parameters: purchased Eurofins; conditions: Km of ATP, 9-point curve in duplicate
Excerpt: as §1, §2

STK17B/DRAK2 = target: T1, STK17B/DRAK2 (Homo sapiens, UniProt O94768); test: Eurofins kinase enzymatic radiometric assay; format: biochemical; parameters: purchased Eurofins; conditions: Km of ATP, 9-point curve in duplicate
T1 sequence (O94768 1-372): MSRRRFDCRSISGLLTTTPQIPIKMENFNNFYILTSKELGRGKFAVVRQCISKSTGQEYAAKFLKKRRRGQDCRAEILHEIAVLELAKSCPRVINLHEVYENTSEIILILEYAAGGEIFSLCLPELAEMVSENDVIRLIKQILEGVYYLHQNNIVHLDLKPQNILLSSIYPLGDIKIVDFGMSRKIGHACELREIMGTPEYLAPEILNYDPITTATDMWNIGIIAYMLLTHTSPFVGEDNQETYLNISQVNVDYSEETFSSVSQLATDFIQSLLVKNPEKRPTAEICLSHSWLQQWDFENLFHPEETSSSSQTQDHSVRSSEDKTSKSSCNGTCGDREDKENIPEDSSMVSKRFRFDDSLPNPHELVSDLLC
Excerpt: as §1, §2

MYLK/MLCK/smMLCK = MYLK/MLCK/smMLCK (Homo sapiens, UniProt Q15746); test: Eurofins kinase enzymatic radiometric assay; format: biochemical; parameters: purchased Eurofins; conditions: Km of ATP, 9-point curve in duplicate
Excerpt: as §1, §2

STK17A/DRAK1 = STK17A/DRAK1 (Homo sapiens, UniProt Q9UEE5); test: Eurofins kinase enzymatic radiometric assay; format: biochemical; parameters: purchased Eurofins; conditions: Km of ATP, 9-point curve in duplicate
Excerpt: as §1, §2

DAPK2 = DAPK2 (Homo sapiens, UniProt Q9UIK4); test: Eurofins kinase enzymatic radiometric assay; format: biochemical; parameters: purchased Eurofins; conditions: Km of ATP, 9-point curve in duplicate
Sequence of DAPK2 (Q9UIK4 whole entry): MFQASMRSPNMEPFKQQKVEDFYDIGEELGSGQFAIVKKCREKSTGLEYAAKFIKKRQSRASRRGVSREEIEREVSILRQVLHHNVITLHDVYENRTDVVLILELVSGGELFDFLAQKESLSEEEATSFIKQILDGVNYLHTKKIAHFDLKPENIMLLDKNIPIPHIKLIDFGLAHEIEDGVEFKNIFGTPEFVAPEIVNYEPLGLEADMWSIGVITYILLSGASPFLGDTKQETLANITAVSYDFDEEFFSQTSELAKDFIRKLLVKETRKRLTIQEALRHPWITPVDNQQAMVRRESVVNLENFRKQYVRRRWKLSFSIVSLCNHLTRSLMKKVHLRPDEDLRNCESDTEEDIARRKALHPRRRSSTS
Excerpt: as §1, §2

FLT3 = FLT3 (Homo sapiens, UniProt P36888); test: Eurofins kinase enzymatic radiometric assay; format: biochemical; parameters: purchased Eurofins; conditions: Km of ATP, 9-point curve in duplicate
Excerpt: as §1, §2

RPS6KA6/RSK4 = RPS6KA6/RSK4 (Homo sapiens, UniProt Q9UK32); test: Eurofins kinase enzymatic radiometric assay; format: biochemical; parameters: purchased Eurofins; conditions: Km of ATP, 9-point curve in duplicate
Sequence of RPS6KA6/RSK4 (Q9UK32 whole entry): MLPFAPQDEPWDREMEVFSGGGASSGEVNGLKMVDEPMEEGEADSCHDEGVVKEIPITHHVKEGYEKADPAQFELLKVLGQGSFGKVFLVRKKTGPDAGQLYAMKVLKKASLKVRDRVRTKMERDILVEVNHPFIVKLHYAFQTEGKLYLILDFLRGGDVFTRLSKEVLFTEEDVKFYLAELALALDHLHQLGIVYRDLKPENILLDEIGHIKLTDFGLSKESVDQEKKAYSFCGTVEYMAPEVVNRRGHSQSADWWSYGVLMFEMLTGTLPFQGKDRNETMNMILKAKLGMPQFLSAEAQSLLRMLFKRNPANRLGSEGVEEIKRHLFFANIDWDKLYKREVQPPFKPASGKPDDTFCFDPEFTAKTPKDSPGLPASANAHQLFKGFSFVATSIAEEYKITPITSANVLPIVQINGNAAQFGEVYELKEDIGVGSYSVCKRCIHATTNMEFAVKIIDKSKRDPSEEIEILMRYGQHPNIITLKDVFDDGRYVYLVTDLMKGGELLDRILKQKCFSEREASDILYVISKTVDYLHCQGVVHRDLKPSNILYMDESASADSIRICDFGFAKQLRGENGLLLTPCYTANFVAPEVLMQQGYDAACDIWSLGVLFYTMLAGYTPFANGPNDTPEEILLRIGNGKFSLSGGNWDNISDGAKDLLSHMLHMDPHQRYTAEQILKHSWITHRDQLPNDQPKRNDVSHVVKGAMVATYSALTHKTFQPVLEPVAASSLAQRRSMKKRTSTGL
Excerpt: as §1, §2

DCLK3/DCAMKL3 = DCLK3/DCAMKL3 (Homo sapiens, UniProt Q9C098); test: Eurofins kinase enzymatic radiometric assay; format: biochemical; parameters: purchased Eurofins; conditions: Km of ATP, 9-point curve in duplicate
Excerpt: as §1, §2

MAP3K11/MLK3 = MAP3K11/MLK3 (Homo sapiens, UniProt Q16584); test: Eurofins kinase enzymatic radiometric assay; format: biochemical; parameters: purchased Eurofins; conditions: Km of ATP, 9-point curve in duplicate
Sequence of MAP3K11/MLK3 (Q16584 whole entry): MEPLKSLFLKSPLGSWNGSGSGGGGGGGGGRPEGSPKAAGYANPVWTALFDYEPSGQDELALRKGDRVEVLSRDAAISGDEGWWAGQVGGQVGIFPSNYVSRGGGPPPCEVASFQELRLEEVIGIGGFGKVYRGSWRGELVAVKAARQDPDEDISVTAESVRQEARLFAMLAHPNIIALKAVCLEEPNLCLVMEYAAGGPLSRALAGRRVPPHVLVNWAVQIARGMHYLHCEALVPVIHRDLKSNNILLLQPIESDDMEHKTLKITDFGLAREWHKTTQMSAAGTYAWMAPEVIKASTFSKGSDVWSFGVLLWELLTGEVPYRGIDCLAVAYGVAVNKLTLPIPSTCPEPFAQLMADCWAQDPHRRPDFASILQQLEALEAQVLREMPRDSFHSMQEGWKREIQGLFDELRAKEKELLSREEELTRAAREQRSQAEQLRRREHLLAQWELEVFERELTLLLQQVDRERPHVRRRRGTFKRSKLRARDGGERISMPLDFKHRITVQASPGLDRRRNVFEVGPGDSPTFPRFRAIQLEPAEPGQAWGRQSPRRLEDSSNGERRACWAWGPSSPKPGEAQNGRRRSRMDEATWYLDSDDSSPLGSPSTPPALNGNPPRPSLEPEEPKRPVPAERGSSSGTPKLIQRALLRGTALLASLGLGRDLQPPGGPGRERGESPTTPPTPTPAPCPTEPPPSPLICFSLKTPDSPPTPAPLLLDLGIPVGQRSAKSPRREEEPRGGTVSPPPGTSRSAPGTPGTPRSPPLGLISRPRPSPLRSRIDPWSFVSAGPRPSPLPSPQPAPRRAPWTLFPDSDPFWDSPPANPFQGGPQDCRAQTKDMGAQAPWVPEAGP
Excerpt: as §1, §2

AURKC = AURKC (Homo sapiens, UniProt Q9UQB9); test: Eurofins kinase enzymatic radiometric assay; format: biochemical; parameters: purchased Eurofins; conditions: Km of ATP, 9-point curve in duplicate
Sequence of AURKC (Q9UQB9 whole entry): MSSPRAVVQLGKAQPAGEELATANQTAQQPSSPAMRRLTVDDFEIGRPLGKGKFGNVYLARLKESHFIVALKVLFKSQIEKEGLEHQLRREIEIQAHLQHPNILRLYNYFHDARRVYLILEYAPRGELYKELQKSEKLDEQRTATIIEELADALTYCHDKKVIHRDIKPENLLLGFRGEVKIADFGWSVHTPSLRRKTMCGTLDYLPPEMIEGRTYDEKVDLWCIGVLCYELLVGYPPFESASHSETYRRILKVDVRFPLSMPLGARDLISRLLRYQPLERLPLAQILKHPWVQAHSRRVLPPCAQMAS
Excerpt: as §1, §2

PRKG2/PKG2 = PRKG2/PKG2 (Homo sapiens, UniProt Q13237); test: Eurofins kinase enzymatic radiometric assay; format: biochemical; parameters: purchased Eurofins; conditions: Km of ATP, 9-point curve in duplicate
Excerpt: as §1, §2

MAP4K4/HGK = MAP4K4/HGK (Homo sapiens, UniProt O95819); test: Eurofins kinase enzymatic radiometric assay; format: biochemical; parameters: purchased Eurofins; conditions: Km of ATP, 9-point curve in duplicate
Excerpt: as §1, §2

PHKG1 = PHKG1 (Homo sapiens, UniProt Q16816); test: Eurofins kinase enzymatic radiometric assay; format: biochemical; parameters: purchased Eurofins; conditions: Km of ATP, 9-point curve in duplicate
Sequence of PHKG1 (Q16816 whole entry): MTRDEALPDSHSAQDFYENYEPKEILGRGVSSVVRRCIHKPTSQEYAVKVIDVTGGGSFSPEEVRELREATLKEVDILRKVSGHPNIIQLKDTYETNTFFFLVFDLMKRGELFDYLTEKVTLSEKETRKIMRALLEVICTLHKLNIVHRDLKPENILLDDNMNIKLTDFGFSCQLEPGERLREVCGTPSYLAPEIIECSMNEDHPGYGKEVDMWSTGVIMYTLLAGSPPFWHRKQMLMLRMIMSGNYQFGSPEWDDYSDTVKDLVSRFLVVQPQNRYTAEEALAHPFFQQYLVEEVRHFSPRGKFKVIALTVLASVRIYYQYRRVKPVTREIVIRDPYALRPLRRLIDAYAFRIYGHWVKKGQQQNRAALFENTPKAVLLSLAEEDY
Excerpt: as §1, §2

STK33 = STK33 (Homo sapiens, UniProt Q9BYT3); test: Eurofins kinase enzymatic radiometric assay; format: biochemical; parameters: purchased Eurofins; conditions: Km of ATP, 9-point curve in duplicate
Sequence of STK33 (Q9BYT3 whole entry): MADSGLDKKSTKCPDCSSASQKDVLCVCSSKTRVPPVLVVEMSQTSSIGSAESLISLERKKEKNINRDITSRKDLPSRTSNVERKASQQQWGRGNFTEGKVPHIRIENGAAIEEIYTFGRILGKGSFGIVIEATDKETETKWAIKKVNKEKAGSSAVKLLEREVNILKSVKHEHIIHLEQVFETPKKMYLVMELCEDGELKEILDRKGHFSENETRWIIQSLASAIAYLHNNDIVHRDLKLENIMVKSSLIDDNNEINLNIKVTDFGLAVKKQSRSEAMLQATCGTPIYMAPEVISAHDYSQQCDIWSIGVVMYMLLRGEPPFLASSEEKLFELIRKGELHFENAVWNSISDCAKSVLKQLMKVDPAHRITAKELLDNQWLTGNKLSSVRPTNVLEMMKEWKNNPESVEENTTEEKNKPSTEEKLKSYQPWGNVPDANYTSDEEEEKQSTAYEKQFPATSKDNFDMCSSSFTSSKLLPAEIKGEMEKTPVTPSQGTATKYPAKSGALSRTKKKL
Excerpt: as §1, §2

ROS1 = ROS1 (Homo sapiens, UniProt P08922); test: Eurofins kinase enzymatic radiometric assay; format: biochemical; parameters: purchased Eurofins; conditions: Km of ATP, 9-point curve in duplicate
Excerpt: as §1, §2

PDGFRB = PDGFRB (Homo sapiens, UniProt P09619); test: Eurofins kinase enzymatic radiometric assay; format: biochemical; parameters: purchased Eurofins; conditions: Km of ATP, 9-point curve in duplicate
Excerpt: as §1, §2

SGK1/SGK = SGK1/SGK (Homo sapiens, UniProt O00141); test: Eurofins kinase enzymatic radiometric assay; format: biochemical; parameters: purchased Eurofins; conditions: Km of ATP, 9-point curve in duplicate
Sequence of SGK1/SGK (O00141 whole entry): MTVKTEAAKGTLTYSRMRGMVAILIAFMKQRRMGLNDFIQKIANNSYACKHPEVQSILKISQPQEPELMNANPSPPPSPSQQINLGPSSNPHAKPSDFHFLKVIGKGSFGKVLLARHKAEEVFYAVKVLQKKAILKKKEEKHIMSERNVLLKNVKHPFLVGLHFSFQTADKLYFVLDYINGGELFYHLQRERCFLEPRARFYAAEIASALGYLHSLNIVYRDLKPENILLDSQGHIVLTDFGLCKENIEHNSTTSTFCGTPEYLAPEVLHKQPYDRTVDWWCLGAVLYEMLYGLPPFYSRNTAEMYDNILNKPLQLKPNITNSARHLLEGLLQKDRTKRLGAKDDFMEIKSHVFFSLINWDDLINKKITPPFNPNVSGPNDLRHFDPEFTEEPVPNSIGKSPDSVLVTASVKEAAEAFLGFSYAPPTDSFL
Excerpt: as §1, §2

TNIK = TNIK (Homo sapiens, UniProt Q9UKE5); test: Eurofins kinase enzymatic radiometric assay; format: biochemical; parameters: purchased Eurofins; conditions: Km of ATP, 9-point curve in duplicate
Excerpt: as §1, §2

MAP3K9/MLK1 = MAP3K9/MLK1 (Homo sapiens, UniProt P80192); test: Eurofins kinase enzymatic radiometric assay; format: biochemical; parameters: purchased Eurofins; conditions: Km of ATP, 9-point curve in duplicate
Excerpt: as §1, §2

DAPK3/ZIPK = DAPK3/ZIPK (Homo sapiens, UniProt O43293); test: Eurofins kinase enzymatic radiometric assay; format: biochemical; parameters: purchased Eurofins; conditions: Km of ATP, 9-point curve in duplicate
Excerpt: as §1, §2

AXL = AXL (Homo sapiens, UniProt P30530); test: Eurofins kinase enzymatic radiometric assay; format: biochemical; parameters: purchased Eurofins; conditions: Km of ATP, 9-point curve in duplicate
Sequence of AXL (P30530 26-894): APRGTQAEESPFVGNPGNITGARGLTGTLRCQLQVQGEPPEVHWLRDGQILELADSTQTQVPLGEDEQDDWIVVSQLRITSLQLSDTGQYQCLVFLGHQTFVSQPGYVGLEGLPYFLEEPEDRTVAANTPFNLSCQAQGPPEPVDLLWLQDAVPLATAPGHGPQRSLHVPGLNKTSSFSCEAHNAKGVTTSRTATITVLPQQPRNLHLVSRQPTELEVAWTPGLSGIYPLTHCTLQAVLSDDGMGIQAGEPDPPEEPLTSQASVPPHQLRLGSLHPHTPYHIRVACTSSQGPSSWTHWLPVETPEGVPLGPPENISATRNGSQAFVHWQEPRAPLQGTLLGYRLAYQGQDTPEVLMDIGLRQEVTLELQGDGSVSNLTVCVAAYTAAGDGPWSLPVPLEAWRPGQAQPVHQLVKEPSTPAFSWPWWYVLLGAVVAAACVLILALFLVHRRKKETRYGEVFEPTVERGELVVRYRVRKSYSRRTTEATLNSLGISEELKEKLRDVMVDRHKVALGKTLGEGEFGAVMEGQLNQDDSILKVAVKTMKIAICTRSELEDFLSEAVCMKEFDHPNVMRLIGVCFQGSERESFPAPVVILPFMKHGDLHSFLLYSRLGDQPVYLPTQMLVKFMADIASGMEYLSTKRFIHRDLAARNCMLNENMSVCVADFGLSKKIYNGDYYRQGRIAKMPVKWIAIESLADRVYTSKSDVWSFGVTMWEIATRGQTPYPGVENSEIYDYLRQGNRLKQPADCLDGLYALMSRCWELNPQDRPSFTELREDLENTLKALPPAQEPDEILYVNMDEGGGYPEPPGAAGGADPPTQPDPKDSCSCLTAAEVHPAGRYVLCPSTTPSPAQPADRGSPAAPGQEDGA
Excerpt: as §1, §2

[1] = tested on: cytoplasmic domain of PDGFR; parameters: method as in PMID 10048786; conditions: in vitro; read-out: IC50, autophosphorylation of the cytoplasmic domain of PDGFR in vitro; cited from earlier work
PDGFRα = tested on: PDGFRα; parameters: method as in PMID 26501955; conditions: cited from earlier work
[2] = tested on: 17 different cancer and normal cell lines; test: cell growth, deep dye drop method; format: cell-based; conditions: 1 μM for 72 h; 17 cancer and normal cell lines; deep dye drop method (N = 2)
Experimental: (A) Structure of GW296115. […] Cell lines in the panel were treated with 1 μM GW296115 for 72 h (N = 2) and analyzed using the deep dye drop method. MCF10A and MRC-5 are non-malignant cell lines. […] Coral was used to make (C): https://phanstiel-lab.med.unc.edu/CORAL.
This compound was further profiled in 17 different cancer and normal cell lines to determine whether it impacted cell growth when treated at 1 μM for 72 h. […] Here we further explore the target engagement characteristics of GW296115 in vitro and in cells and capture its specificity for the CAMK family of kinases.

RSK3 = tested on: RSK3; parameters: method as in earlier work; conditions: cited from earlier work

With `COc1ccc2[nH]c3c4[nH]c5ccc(OC)cc5c4c4c(c3c2c1)C(=O)NC4=O` [GW296115] the IC50 (PIM3) was 0.089 µM, the IC50 (PDGFRA) was 0.71 µM and the IC50 (PIM2) was 0.01 µM. For the same molecule, the IC50 (DAPK1) was greater than 10 µM, the IC50 (STK17B/DRAK2) was 0.0055 µM and the IC50 (MYLK/MLCK/smMLCK) was 0.049 µM. The IC50 (STK17A/DRAK1) was 0.028 µM, the IC50 (DAPK2) was 0.021 µM and the IC50 (FLT3) was 0.037 µM. The IC50 (RPS6KA6/RSK4) was 0.012 µM, the IC50 (DCLK3/DCAMKL3) was 0.089 µM and the IC50 (MAP3K11/MLK3) was 0.0015 µM. The IC50 (AURKC) was 4.1 µM, the IC50 (PRKG2/PKG2) was 0.0063 µM and the IC50 (MAP4K4/HGK) was 0.029 µM. It also gave an IC50 (PHKG1) of 0.02 µM, an IC50 (STK33) of 0.11 µM and an IC50 (ROS1) greater than 10 µM. The IC50 (PDGFRB) was greater than 10 µM, the IC50 (SGK1/SGK) was 0.71 µM and the IC50 (TNIK) was 0.01 µM. It also gave an IC50 (MAP3K9/MLK1) of 0.026 µM, an IC50 (DAPK3/ZIPK) of 0.1 µM and an IC50 (AXL) of 0.16 µM. The IC50 [1] was 1.8 ± 0.12 µM, the “Nanosyn % Inhibition at 1 μM” value (PDGFRα) was 84% and the “effect on cell growth” value [2] was “did not impact cell growth”. The “Nanosyn % Inhibition at 1 μM” value (RSK3) was 92%.
